In test [1] the test system is cellular histone deacetylase activity (Lys-Ac). As to the kind of experiment: Inhibition of cellular HDAC activity (Cell Lys-Ac). Format: cell-based. The note with it: Lys-Ac substrate.
Test [2] deals with Histone Deacetylase 4 (HDAC4) catalytic domain (Homo sapiens (Human), UniProt P56524). Nature of the test: Biochemical HDAC inhibition assay, fluorogenic substrate Boc-Lys(Tfa)-AMC. In outline: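 Human HDAC4 catalytic domain (aa 648-1032, C-terminal His6) at 0.2 μg/mL working solution was tested against a 16-point compound dilution series in Tris buffer pH 8.0 for 15 min at 37 °C. Substrate Boc-Lys(Tfa)-AMC was prepared at 50 μM (5×). The reaction was stopped with trypsin plus reference inhibitor for 1 h at 37 °C, and AMC fluorescence was read at Ex 355/Em 460 nm.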

Test [3] concerns cellular histone deacetylase enzymatic activity in Jurkat E6-1 cells. Nature of the test: Inhibition of cellular HDAC activity, Boc-Lys(Tfa)-AMC substrate (Cell Lys-TFA). Format: cell-based. A digest of the protocol: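 Jurkat E6-1 cells (75,000/well) were treated with a 16-point compound dilution for 2 h at 37 °C, then exposed to Boc-Lys(Tfa)-AMC for 3 h. Lysis buffer containing trypsin was added overnight (15-16 h), and AMC fluorescence was read at Ex 355/Em 460 nm.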

The mark [4] stands for this setting: Homo sapiens, Jurkat E6.1, Lys-TFA substrate.

Bounds are passed on as bounds.

Histone Deacetylase 4 (HDAC4) catalytic domain, sequence (P56524 648-1032): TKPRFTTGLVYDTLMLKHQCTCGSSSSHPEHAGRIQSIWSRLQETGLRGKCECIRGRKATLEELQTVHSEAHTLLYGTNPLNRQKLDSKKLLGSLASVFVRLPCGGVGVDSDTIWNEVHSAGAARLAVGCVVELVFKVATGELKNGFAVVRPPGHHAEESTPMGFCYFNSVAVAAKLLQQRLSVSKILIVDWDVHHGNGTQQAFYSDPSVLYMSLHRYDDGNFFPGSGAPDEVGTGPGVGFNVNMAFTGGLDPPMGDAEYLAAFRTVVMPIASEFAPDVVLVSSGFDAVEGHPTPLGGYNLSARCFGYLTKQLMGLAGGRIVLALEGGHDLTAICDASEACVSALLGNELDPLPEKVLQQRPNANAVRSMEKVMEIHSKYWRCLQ

The term IC50 denotes the concentration at which inhibition is half-maximal. Lower therefore signals greater potency. `Cc1c(F)cccc1C1(C(=O)NO)CCc2cnc(C3CC3)nc2CC1` (stereo not drawn) [Example 83, 2-Cyclopropyl-7-(3-fluoro-2-methylphenyl)-N-hydroxy-6,7,8,9-tetrahydro-5H-cyclohepta[d]pyrimidine-7-carboxamide]: the results for the IC50 in test [1], in test [2] and in test [3] (setting [4]) were > 50 µM, 1300 nM and 490 nM, respectively.
In the case of `Cc1cc(-c2nc3c(s2)C[C@@](C(=O)NO)(c2cccc(F)c2C)C3)n(C)n1` [Example 70, (R)-2-(1,3-Dimethyl-1H-pyrazol-5-yl)-5-(3-fluoro-2-methylphenyl)-N-hydroxy-5,6-dihydro-4H-cyclopenta[d]thiazole-5-carboxamide], the IC50 in test [1] was > 50 µM; in test [2] it was 122 nM; in test [3] (setting [4]) it was 79 nM.
For `Cc1c(F)cccc1C1(C(=O)NO)CCc2nn(Cc3ccc(F)cc3)cc2C1` (stereo not drawn) [Example 36, 5-(3-Fluoro-2-methylphenyl)-1-(4-fluorobenzyl)-N-hydroxy-4,5,6,7-tetrahydro-1H-indazole-5-carboxamide and 5-(3-fluoro-2-methylphenyl)-2-(4-fluorobenzyl)-N-hydroxy-4,5,6,7-tetrahydro-2H-indazole-5-carboxamide], the IC50 in test [1] is > 50 µM; in test [2], 600 nM; in test [3] (Lys-TFA substrate), 370 nM.
As to `Cc1c(F)cccc1[C@]1(C(=O)NO)CCc2nc(-c3ccc(F)cc3)sc21` [Example 78, (S)-6-(3-Fluoro-2-methylphenyl)-2-(4-fluorophenyl)-N-hydroxy-5,6-dihydro-4H-cyclopenta[d]thiazole-6-carboxamide], the results for the IC50 in test [1], in test [2] and in test [3] (setting [4]) were > 50 µM, 120 nM and 500 nM, respectively.
In the same order, the values of `COc1ccc(-c2nc3c(s2)C[C@@](C(=O)NO)(c2cccc(F)c2C)C3)nc1` [Example 71, (R)-5-(3-Fluoro-2-methylphenyl)-N-hydroxy-2-(5-methoxypyridin-2-yl)-5,6-dihydro-4H-cyclopenta[d]thiazole-5-carboxamide] are > 50 µM, 95 nM and 56 nM.
The corresponding values for `Cc1c(F)cccc1[C@]1(C(=O)NO)CCc2nn(Cc3ccccc3)cc21` [Example 94, (R)-2-Benzyl-4-(3-fluoro-2-methylphenyl)-N-hydroxy-2,4,5,6-tetrahydrocyclopenta[c]pyrazole-4-carboxamide] are > 50 µM, 820 nM and 2780 nM.
With `Cc1c(F)cccc1[C@@]1(C(=O)NO)Cc2nc(-c3ccnn3C)sc2C1` [Example 69, (R)-5-(3-Fluoro-2-methylphenyl)-N-hydroxy-2-(1-methyl-1H-pyrazol-5-yl)-5,6-dihydro-4H-cyclopenta[d]thiazole-5-carboxamide], the IC50 is > 50 µM in test [1], 44 nM in test [2] and 35 nM in test [3] (setting [4]).
`Cc1c(F)cccc1[C@]1(C(=O)NO)Cc2cnn(C3CC3)c2C1` [Example 58, (S)-1-Cyclopropyl-5-(3-fluoro-2-methylphenyl)-N-hydroxy-1,4,5,6-tetrahydrocyclopenta[c]pyrazole-5-carboxamide]: the IC50 in test [1] was > 50 µM; in test [2] it was 48 nM; in test [3] (setting [4]), 125 nM.
`Cc1c(F)cccc1[C@]1(C(=O)NO)Cc2cnn(-c3ccccc3Cl)c2C1` [Example 7, (S)-1-(2-Chlorophenyl)-5-(3-fluoro-2-methylphenyl)-N-hydroxy-1,4,5,6-tetrahydrocyclopenta[c]pyrazole-5-carboxamide]: the half-maximal inhibitory concentration (IC50) was > 50 µM in test [1], 15 nM in test [2] and 13 nM in test [3] (setting [4]).
On to `Cc1c(F)cccc1[C@@]1(C(=O)NO)Cc2nc(-c3ccc(F)cn3)sc2C1` [Example 96, (R)-5-(3-Fluoro-2-methylphenyl)-N-hydroxy-2-(5-fluoropyridin-2-yl)-5,6-dihydro-4H-cyclopenta[d]thiazole-5-carboxamide], for which the IC50 was > 50 µM in test [1], 51 nM in test [2] and 60 nM in test [3] (setting [4]).
`Cc1ccccc1-c1nc2c(s1)[C@](C(=O)NO)(c1cccc(F)c1C)CC2` [Example 73, (S)-6-(3-Fluoro-2-methylphenyl)-N-hydroxy-2-(o-tolyl)-5,6-dihydro-4H-cyclopenta[d]thiazole-6-carboxamide]: the figures for the IC50 in test [1], in test [2] and in test [3] (setting [4]) were > 50 µM, 143 nM and 630 nM, respectively.
For the compound `Cc1cc(C)nc(-n2cc3c(n2)C[C@](C(=O)NO)(c2cccc(F)c2C)C3)n1` [Example 91, (S)-2-(4,6-Dimethylpyrimidin-2-yl)-5-(3-fluoro-2-methylphenyl)-N-hydroxy-2,4,5,6-tetrahydrocyclopenta[c]pyrazole-5-carboxamide], the figures for the IC50 in test [1], in test [2] and in test [3] (setting [4]) were > 50 µM, 280 nM and 460 nM, respectively.
In the case of `Cc1c(F)cccc1[C@]1(C(=O)NO)CCc2nn(Cc3ccccc3F)cc21` [Example 95, (R)-4-(3-fluoro-2-methylphenyl)-2-(2-fluorobenzyl)-N-hydroxy-2,4,5,6-tetrahydrocyclopenta[c]pyrazole-4-carboxamide], the IC50 is > 50 µM in test [1], 710 nM in test [2] and 2980 nM in test [3] (setting [4]).
Take `Cc1cnccc1-n1ncc2c1C[C@](C(=O)NO)(c1cccc(F)c1C)C2` [Example 26, (S)-5-(3-Fluoro-2-methylphenyl)-N-hydroxy-1-(3-methylpyridin-4-yl)-1,4,5,6-tetrahydrocyclopenta[c]pyrazole-5-carboxamide]: the IC50 in test [1] is > 50 µM; in test [2], 57 nM; in test [3] (setting [4]) it was 71 nM.
As to `Cc1cccc(F)c1-n1ncc2c1C[C@](C(=O)NO)(c1cccc(F)c1C)C2` [Example 15, (S)-5-(3-Fluoro-2-methylphenyl)-1-(2-fluoro-6-methylphenyl)-N-hydroxy-1,4,5,6-tetrahydrocyclopenta[c]pyrazole-5-carboxamide], the IC50 in test [1] is > 50 µM; in test [2], 19 nM; in test [3] (setting [4]), 32 nM.
For `Cc1c(F)cccc1C1(C(=O)NO)Cc2nc(-c3ccccc3F)sc2C1` (single isomer, unassigned) [Example 61, E1-(abs)-5-(3-Fluoro-2-methylphenyl)-2-(2-fluorophenyl)-N-hydroxy-5,6-dihydro-4H-cyclopenta[d]thiazole-5-carboxamide], the IC50 was > 50 µM in test [1], 480 nM in test [2] and 120 nM in test [3] (Lys-TFA substrate).
As for `Cc1c(F)cccc1[C@]1(C(=O)NO)Cc2cnn(-c3ccc(F)cn3)c2C1` [Example 16, (S)-5-(3-Fluoro-2-methylphenyl)-1-(5-fluoropyridin-2-yl)-N-hydroxy-1,4,5,6-tetrahydrocyclopenta[c]pyrazole-5-carboxamide], the IC50 in test [1] is > 50 µM; in test [2] it was 31 nM; in test [3] (setting [4]) it was 69 nM.
On to `O=C(NO)C1(c2ccccc2)CCc2cn(CC(F)(F)F)nc2CC1` (stereo not drawn) [Example 86, N-Hydroxy-6-phenyl-2-(2,2,2-trifluoroethyl)-2,4,5,6,7,8-hexahydrocyclohepta[c]pyrazole-6-carboxamide], for which the IC50 in test [1] is > 50 µM; in test [2], 8200 nM; in test [3] (setting [4]), 46700 nM.
For the compound `Cc1c(F)cccc1C1(C(=O)NO)CCc2nn(CC(F)(F)F)c(C3CC3)c2C1` (stereo not drawn) [Example 39, 3-Cyclopropyl-5-(3-fluoro-2-methylphenyl)-N-hydroxy-2-(2,2,2-trifluoroethyl)-4,5,6,7-tetrahydro-2H-indazole-5-carboxamide], the figures for the IC50 in test [1], in test [2] and in test [3] (setting [4]) were > 50 µM, 4400 nM and 1800 nM, respectively.
Consider `Cc1c(F)cccc1C1(C(=O)NO)Cc2nc(-c3cnn(C)c3C)sc2C1` (single isomer, unassigned) [Example 77, E2-(abs)-2-(1,5-dimethyl-1H-pyrazol-4-yl)-5-(3-fluoro-2-methylphenyl)-N-hydroxy-5,6-dihydro-4H-cyclopenta[d]thiazole-5-carboxamide], for which the IC50 is > 50 µM in test [1], 200 nM in test [2] and 128 nM in test [3] (Lys-TFA substrate).
`Cc1c(F)cccc1[C@]1(C(=O)NO)Cc2cnn(Cc3ccccc3)c2C1` [Example 92, (S)-1-Benzyl-5-(3-fluoro-2-methylphenyl)-N-hydroxy-1,4,5,6-tetrahydrocyclopenta[c]pyrazole-5-carboxamide]: the values for the IC50 in test [1], in test [2] and in test [3] (setting [4]) were > 50 µM, 48 nM and 27 nM, respectively.
For `Cc1c(F)cccc1C1(C(=O)NO)CCc2nc(C3CC3)[nH]c(=O)c2C1` (stereo not drawn) [Example 40, 2-Cyclopropyl-6-(3-fluoro-2-methylphenyl)-N-hydroxy-4-oxo-3,4,5,6,7,8-hexahydroquinazoline-6-carboxamide], the IC50 in test [1] was > 50 µM; in test [2], 1600 nM; in test [3] (setting [4]), 580 nM.
Consider `Cc1c(F)cccc1[C@]1(C(=O)NO)Cc2cnn(-c3ccc(F)cc3F)c2C1` [Example 17, (S)-1-(2,4-Difluorophenyl)-5-(3-fluoro-2-methylphenyl)-N-hydroxy-1,4,5,6-tetrahydrocyclopenta[c]pyrazole-5-carboxamide], for which the IC50 in test [1] was > 50 µM; in test [2] it was 29 nM; in test [3] (setting [4]), 39 nM.
In the case of `Cc1c(F)cccc1C1(C(=O)NO)CCc2c(cnn2-c2ccccc2)C1` (single isomer, unassigned) [Example 32, E2-(abs)-5-(3-fluoro-2-methylphenyl)-N-hydroxy-1-phenyl-4,5,6,7-tetrahydro-1H-indazole-5-carboxamide], the IC50 was > 50 µM in test [1], 17300 nM in test [2] and 2900 nM in test [3] (Lys-TFA substrate).

The values are drawn from patent US10065948B2, “Histone deacetylase inhibitors and compositions and methods of use thereof” (CHDI Foundation, Inc., priority 2014, dated 2018).
